Measurements as given in ChEMBL document CHEMBL1201862, “PubChem BioAssay data set” (2004).
Activity calls are given as the source filed them.

How the values were obtained:
Prothrombin = Prothrombin (Homo sapiens, UniProt P00734); assay: Thrombin 1536 HTS Dose Response Confirmation. [Related pubchem assays: 1046 (Thrombin 1536 HTS; hits were confirmed in this assay)]; assay type: functional
Aminopeptidase N = molecular target: T1, Aminopeptidase N (Plasmodium falciparum FcB1/Columbia, UniProt O96935); assay: malaria alanyl aminopeptidase activity blockers – biochemical, fluorogenic H-Leu-NHMec substrate, 1536-well (AID 1445); set-up: species or system Plasmodium falciparum 3D7, 3D7
T1 sequence (O96935 whole entry): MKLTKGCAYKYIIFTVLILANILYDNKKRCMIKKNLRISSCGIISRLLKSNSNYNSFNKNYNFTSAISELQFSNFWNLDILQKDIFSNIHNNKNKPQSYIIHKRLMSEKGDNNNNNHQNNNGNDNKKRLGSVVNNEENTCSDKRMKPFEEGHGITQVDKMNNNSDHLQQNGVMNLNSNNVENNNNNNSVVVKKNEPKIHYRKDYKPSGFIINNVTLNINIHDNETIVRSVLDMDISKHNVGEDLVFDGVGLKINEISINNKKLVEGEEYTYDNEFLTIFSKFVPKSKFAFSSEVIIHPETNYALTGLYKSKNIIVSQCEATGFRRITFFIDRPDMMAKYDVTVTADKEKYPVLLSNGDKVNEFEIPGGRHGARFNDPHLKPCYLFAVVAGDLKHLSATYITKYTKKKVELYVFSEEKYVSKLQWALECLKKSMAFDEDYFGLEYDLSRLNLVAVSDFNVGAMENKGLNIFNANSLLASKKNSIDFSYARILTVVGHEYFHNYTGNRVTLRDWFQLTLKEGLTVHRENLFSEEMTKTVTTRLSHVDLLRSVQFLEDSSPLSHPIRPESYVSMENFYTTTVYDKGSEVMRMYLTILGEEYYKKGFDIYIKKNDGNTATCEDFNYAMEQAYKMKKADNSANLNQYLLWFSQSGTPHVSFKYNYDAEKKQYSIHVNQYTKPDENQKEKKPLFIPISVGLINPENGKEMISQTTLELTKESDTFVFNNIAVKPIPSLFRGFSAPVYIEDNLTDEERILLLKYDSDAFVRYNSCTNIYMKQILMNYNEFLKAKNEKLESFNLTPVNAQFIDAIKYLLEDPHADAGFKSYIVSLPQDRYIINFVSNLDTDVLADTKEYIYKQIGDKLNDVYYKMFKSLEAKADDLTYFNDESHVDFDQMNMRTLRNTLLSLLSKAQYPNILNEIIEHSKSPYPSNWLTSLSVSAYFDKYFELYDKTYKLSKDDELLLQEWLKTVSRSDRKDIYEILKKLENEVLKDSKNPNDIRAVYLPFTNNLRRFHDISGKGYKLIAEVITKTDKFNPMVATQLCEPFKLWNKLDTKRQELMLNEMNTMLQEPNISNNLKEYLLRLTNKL

Hexokinase HKDC1 = molecular target: T2, Hexokinase HKDC1 (Homo sapiens, UniProt Q2TB90); assay: inhibition of HKDC1 glucose phosphorylation – biochemical, W721R variant, dose response (AID 504729); assay type: functional
T2 sequence (Q2TB90 whole entry): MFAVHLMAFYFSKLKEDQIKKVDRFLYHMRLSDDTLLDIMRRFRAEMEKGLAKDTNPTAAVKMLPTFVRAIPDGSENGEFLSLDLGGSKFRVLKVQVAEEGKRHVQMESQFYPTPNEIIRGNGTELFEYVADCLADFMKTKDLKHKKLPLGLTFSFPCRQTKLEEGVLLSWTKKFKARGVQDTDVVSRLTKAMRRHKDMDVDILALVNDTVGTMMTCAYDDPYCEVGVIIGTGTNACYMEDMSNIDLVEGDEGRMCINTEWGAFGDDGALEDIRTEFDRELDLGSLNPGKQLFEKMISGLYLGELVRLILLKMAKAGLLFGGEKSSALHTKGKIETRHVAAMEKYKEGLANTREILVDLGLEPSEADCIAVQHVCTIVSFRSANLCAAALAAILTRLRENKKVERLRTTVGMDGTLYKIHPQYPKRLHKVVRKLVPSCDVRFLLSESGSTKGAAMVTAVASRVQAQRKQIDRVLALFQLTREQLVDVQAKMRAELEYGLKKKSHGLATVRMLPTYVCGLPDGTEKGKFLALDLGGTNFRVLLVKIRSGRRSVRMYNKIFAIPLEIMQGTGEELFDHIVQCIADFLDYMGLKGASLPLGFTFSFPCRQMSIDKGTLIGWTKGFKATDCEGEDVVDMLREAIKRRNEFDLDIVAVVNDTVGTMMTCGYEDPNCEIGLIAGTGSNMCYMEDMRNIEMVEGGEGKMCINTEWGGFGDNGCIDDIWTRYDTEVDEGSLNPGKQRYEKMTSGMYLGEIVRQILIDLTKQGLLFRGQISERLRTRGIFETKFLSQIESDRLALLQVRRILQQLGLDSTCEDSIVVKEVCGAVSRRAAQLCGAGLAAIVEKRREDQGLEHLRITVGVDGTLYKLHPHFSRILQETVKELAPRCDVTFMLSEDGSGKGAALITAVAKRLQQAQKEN

[1] = molecular target: T3, Aryl hydrocarbon receptor (Homo sapiens, UniProt P35869); assay: Luminescence-based cell-based high throughput dose response assay for activators of the Aryl Hydrocarbon Receptor (AHR). [Related pubchem assays: 2796 (Primary screen (AHR activators in singlicate)), 2845 (Confirmation screen (AHR activators in triplicate)), 434939 (Counterscreen (PXR activators in triplicate)), 2804 (Summary (AHR activators))]; assay type: ADME
T3 sequence (P35869 whole entry): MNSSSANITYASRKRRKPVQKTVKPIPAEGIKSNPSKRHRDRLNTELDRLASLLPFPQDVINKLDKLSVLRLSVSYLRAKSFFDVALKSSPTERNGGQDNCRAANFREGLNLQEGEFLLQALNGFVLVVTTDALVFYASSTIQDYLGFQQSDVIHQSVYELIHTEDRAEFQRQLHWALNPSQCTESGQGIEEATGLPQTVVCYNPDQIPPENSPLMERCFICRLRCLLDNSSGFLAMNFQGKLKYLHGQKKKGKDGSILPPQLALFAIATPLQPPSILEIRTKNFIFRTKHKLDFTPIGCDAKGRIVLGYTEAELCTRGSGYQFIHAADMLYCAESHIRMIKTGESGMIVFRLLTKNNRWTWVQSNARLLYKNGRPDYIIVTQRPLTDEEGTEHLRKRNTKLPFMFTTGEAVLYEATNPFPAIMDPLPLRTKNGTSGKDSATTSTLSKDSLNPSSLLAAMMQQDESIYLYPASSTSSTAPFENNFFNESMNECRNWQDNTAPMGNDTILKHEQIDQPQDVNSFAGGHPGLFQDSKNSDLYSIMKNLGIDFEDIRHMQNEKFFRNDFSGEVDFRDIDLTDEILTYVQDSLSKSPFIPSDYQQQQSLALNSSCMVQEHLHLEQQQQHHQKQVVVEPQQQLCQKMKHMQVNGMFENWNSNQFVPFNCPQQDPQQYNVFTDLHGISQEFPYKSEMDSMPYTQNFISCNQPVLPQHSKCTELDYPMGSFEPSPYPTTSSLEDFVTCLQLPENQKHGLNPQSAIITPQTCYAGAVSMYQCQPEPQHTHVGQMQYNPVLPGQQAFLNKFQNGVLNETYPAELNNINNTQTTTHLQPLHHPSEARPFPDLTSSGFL

H9c2 = assay: cells; assay type: functional, cell-based; settings: Rattus norvegicus, H9c2, Myocardium;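 note: confirmatory concentration-response retest of ultra-high-throughput screening hits for modulation of myocardial damage; cell death induced by hydrogen peroxide oxidative stress; compound pretreatment for 60 min then peroxide exposure for 2 h; potency is for protecting the cells against peroxide damage rather than for killing them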
[2] = NIH-3T3 fibroblast cytotoxicity, dose response, cytotoxicity control, cell-based, fluorescence, Alamar Blue, secondary assay (AID 2327); assay type: functional;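 note: NIH-3T3 mouse fibroblasts cultured with fluconazole at 8 µg/mL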
[3] = molecular target: Eukaryotic translation initiation factor 4H (Homo sapiens, UniProt Q15056); assay: eIF4H binding inhibition – biochemical, uHTS, fluorescence polarization, translation initiation inhibitor project, primary screen (AID 2012)
[4] = fluconazole-exposed Candida albicans growth modulators – fluorescence, retest, confirmation (AID 2467); assay type: functional, cell-based
[5] = molecular target: Polyadenylate-binding protein 1 (Homo sapiens, UniProt P11940); assay: blockers of PABP interaction with poly(A) – biochemical, fluorescence polarization, […] (AID 2014)
Nonstructural protein 1 = Nonstructural protein 1 (Influenza A virus, UniProt Q194T2); assay type: functional, Influenza A virus (A/California/07/2009(H1N1))
Estrogen receptor = molecular target: T4, Estrogen receptor (Homo sapiens, UniProt P03372);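 note: potency for inhibiting coactivator peptide recruitment to the receptor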
T4 sequence (P03372 whole entry): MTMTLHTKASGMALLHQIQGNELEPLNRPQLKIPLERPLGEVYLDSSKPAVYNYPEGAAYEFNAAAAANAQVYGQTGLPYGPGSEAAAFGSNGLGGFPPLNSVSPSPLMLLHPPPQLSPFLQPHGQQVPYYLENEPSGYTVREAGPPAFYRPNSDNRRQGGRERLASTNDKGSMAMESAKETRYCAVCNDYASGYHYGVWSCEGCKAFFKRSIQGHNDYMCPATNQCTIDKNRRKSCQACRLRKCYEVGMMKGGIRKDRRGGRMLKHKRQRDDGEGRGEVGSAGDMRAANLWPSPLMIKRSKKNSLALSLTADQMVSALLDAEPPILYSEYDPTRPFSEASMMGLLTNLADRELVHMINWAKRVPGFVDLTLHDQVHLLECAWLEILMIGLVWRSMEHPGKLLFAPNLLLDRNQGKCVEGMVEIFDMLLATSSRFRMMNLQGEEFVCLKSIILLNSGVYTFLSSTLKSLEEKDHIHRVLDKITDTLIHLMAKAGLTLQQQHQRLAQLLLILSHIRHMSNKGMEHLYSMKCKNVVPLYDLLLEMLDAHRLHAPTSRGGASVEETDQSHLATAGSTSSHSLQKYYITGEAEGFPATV

Large T antigen = Large T antigen (Simian virus 40, UniProt P03070); assay type: functional, Betapolyomavirus macacae;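 note: Confirmatory-stage PubChem screen for compounds that inhibit SV40 T antigen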
[6] = molecular target: FAD-linked sulfhydryl oxidase ALR (Homo sapiens, UniProt P55789); assay: ALR-catalysed DTT oxidation blockers – biochemical, H2O2 detection, luminescence, cherry-pick, dose response (AID 493248)
[7] = molecular target: T5, Rac GTPase-activating protein 1 (Homo sapiens, UniProt Q9H0H5); assay: blockers of MgcRacGAP-driven Rac1 GTP hydrolysis – biochemical, ADP Hunter fluorescence, primary and confirmatory, confirmation (AID 624330); assay type: functional
T5 sequence (Q9H0H5 whole entry): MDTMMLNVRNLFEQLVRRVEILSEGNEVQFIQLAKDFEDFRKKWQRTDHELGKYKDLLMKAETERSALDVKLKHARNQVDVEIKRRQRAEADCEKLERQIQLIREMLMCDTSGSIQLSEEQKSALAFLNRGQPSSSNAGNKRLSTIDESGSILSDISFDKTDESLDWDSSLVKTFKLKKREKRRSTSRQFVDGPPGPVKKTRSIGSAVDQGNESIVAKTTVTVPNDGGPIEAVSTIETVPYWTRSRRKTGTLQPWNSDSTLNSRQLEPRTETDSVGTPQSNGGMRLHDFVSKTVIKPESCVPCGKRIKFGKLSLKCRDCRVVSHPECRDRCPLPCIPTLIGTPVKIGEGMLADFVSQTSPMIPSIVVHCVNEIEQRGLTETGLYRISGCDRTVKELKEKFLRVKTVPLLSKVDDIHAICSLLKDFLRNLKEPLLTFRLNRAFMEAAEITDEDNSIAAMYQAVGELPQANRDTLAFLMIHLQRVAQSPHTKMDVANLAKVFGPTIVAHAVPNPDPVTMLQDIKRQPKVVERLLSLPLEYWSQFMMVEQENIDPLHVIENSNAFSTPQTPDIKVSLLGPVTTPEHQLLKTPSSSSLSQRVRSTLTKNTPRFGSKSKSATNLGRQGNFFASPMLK

[8] = HIV-1 Vif–A3G interaction blockers – biochemical, TR-FRET, GST-Vif 1-94, biotin-A3G peptide, dose response retest, primary screen (AID 1117319); assay type: functional;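 note: TR-FRET signal of purified GST-Vif binding a biotinylated A3G peptide; inhibitors lower the FRET signal by blocking Vif and A3G binding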
[9] = molecular target: DNA dC->dU-editing enzyme APOBEC-3A (Homo sapiens, UniProt P31941); assay: Dose Response confirmation of small molecule APOBEC3A DNA Deaminase Inhibitors via a fluorescence-based single-stranded DNA deaminase assay. [Related pubchem assays (depositor defined):AID493011, AID493024]; assay type: functional
[10] = molecular target: DNA dC->dU-editing enzyme APOBEC-3G (Homo sapiens, UniProt Q9HC16); assay type: functional;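 note: Dose-response counterscreen measuring inhibition of APOBEC3G DNA deaminase activity, run while confirming APOBEC3A inhibitors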
Chain of DNA dC->dU-editing enzyme APOBEC-3G (Q9HC16 whole entry): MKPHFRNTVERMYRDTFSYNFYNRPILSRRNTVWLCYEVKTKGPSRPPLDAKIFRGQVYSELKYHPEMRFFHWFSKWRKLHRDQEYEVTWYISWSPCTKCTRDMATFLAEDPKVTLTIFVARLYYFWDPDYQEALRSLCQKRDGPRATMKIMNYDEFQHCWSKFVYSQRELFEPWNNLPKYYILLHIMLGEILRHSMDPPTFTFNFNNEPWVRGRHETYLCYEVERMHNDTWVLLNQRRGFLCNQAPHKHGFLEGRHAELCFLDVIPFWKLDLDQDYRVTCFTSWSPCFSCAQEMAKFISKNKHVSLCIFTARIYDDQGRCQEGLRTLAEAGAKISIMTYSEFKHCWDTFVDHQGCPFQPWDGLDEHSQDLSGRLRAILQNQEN

Chain of Polyadenylate-binding protein 1 (P11940 whole entry): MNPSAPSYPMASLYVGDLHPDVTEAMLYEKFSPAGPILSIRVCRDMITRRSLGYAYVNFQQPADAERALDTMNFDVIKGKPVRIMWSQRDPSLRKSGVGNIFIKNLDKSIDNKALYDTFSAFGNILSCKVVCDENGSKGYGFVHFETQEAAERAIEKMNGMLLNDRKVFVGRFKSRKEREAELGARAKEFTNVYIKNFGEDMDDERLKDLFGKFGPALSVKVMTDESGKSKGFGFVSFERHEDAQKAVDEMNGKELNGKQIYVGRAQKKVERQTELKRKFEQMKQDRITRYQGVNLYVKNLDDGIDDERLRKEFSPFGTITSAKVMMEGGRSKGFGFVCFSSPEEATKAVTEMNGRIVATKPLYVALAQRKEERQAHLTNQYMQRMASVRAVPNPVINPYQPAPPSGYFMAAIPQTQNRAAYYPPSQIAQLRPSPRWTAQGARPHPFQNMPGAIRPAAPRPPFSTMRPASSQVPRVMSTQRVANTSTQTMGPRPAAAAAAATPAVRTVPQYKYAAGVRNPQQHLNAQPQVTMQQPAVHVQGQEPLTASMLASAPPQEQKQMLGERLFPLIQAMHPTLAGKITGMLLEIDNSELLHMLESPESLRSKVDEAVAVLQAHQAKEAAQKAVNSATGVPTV
Chain of FAD-linked sulfhydryl oxidase ALR (P55789 whole entry): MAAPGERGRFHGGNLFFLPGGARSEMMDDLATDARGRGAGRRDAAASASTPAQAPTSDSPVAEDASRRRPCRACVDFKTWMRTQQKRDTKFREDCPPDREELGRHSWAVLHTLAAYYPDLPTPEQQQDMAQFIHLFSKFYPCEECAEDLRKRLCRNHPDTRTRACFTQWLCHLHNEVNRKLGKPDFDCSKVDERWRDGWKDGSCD
Chain of Large T antigen (P03070 whole entry): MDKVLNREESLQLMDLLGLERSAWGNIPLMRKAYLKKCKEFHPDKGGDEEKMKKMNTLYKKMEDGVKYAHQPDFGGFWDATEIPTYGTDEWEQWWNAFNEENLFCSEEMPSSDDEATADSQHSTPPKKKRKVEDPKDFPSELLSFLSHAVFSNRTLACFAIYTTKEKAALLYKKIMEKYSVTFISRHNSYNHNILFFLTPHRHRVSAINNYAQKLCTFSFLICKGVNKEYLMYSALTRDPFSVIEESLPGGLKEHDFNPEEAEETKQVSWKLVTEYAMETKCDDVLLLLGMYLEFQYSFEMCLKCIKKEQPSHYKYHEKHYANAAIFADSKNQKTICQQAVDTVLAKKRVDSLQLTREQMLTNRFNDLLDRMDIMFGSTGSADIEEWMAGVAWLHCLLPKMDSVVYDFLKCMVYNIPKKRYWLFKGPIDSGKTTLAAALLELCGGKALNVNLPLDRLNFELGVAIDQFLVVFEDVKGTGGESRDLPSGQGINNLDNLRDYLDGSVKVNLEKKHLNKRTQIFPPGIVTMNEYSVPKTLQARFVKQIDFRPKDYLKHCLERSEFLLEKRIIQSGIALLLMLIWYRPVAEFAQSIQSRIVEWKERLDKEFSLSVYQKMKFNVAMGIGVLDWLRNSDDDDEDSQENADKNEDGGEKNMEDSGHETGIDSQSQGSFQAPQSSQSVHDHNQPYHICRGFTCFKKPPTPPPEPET
Chain of DNA dC->dU-editing enzyme APOBEC-3A (P31941 whole entry): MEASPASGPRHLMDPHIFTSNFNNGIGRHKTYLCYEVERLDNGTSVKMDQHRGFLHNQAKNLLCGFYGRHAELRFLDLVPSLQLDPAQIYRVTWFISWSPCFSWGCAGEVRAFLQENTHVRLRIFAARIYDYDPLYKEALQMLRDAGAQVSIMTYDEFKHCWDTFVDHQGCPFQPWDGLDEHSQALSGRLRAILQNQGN
Chain of Nonstructural protein 1 (Q194T2 whole entry): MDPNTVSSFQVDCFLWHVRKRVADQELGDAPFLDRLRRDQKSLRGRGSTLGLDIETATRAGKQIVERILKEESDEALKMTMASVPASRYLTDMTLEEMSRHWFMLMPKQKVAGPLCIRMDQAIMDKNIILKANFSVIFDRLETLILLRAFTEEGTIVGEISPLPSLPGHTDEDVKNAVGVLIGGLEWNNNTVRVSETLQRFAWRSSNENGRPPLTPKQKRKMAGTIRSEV

Nc1nncn1C(=O)CCc1ccccc1
IC50 (Prothrombin): 0.605 µM (active)

CCCS(=O)(=O)N1CCC(C(=O)NCc2ccc(F)cc2)CC1
IC50 (Aminopeptidase N): 31.6 µM (active)

Cc1cc(C(F)F)n2ncc(C(=O)NCCc3ccc(Cl)cc3)c2n1
IC50 (Hexokinase HKDC1): 12.7 µM (active)

CC(=O)n1cc(/C=N/NC(=O)c2sc(C)nc2C)c2ccccc21
EC50 [1]: > 91.7 µM (not active) | IC50 (H9c2): > 79 µM (inactive)

Oc1ccc(/C=N/N(c2ccccc2)c2ccccc2)c(O)c1O
EC50 [2]: > 160 µM (inactive) | IC50 [3]: 31.7 µM (active) | EC50 [4]: > 38 µM (not active) | IC50 [5]: > 100 µM (inactive) | IC50 (Nonstructural protein 1): 47.6 µM (active)

CCC(=O)n1nc(-c2ccc(Cl)cc2)nc1SC
IC50 (Prothrombin): 7.14 µM (active)

O=C(Nc1nc2ccccc2s1)c1cc2c(s1)-c1ccccc1OC2
IC50 (Estrogen receptor): > 50 µM (not active)

COc1cc(-c2nnc(-c3ccc(S(=O)(=O)c4ccccc4)cc3)o2)cc(OC)c1OC
IC50 (Estrogen receptor): > 50 µM (not active)

Cn1c(=O)c2c(nc(/C=C/c3cccc(Cl)c3)n2C)n(C)c1=O
EC50 [1]: 3.34 µM (active)

C[n+]1cnn2c1SCC1(COC1)C2
IC50 [3]: > 100 µM (inactive) | IC50 [5]: 4.59 µM (active)

COc1ccccc1NC(=O)C1C2CCCCC21 (stereo unspecified)
IC50 (Prothrombin): > 50 µM (not active)

COc1cc(/C=C2\SC(=S)N(C(Cc3ccccc3)C(=O)O)C2=O)ccc1O (stereo unspecified)
IC50 (Aminopeptidase N): 42.3 µM (active) | IC50 (Large T antigen): 65 µM (active)

COc1cc(/C=C2/C(=O)NN(c3ccc(Cl)c(Cl)c3)C2=O)cc([N+](=O)[O-])c1O
IC50 (Large T antigen): 12.5 µM (active) | AC50 [6]: 0.409 µM (active) | IC50 (Hexokinase HKDC1): 32.5 µM (inactive)

CCN(CC)c1ccc(NC(=O)c2ccc(Br)o2)cc1
AC50 [6]: 0.745 µM (active) | IC50 [7]: 25.9 µM (active) | IC50 [8]: > 100 µM (active)

COc1ccc(N(CC(=O)N2CCCCCC2)S(=O)(=O)c2ccccc2[N+](=O)[O-])c(OC)c1
IC50 [3]: > 100 µM (inactive) | IC50 [5]: 11.9 µM (active) | IC50 [9]: 5.63 µM (active) | IC50 [10]: 4.83 µM (active)

COC(=O)C1CC(=O)c2ccsc2C1 (stereo unspecified)
IC50 (Prothrombin): > 50 µM (not active)

Cn1c(N)c(C(=O)Nc2ccccc2F)sc1=S
EC50 [1]: 0.857 µM (active)
